Laboratory results reported in article PMC11524583, “Neurons enhance blood–brain barrier function via upregulating claudin-5 and VE-cadherin expression due to glial cell line-derived neurotrophic factor secretion” (eLife, 2024).
Where “and” joins values, the source holds several entries; their conditions need not be identical. Identical values can stand only once. Like-named read-outs stand apart in the source and are kept apart here. Marks after values point to notes of the source that are not given here.

Key:
[1] = unbound fraction in brain, cited from earlier work
[2] = in situ brain perfusion in rodents, published permeability multiplied by VSA 150 cm^2/g, cited from earlier work
[3] = test system: hCMEC/D3 mono-culture BBB model
[4] = test system: triple co-culture BBB model (hCMEC/D3, U251 and SH-SY5Y cells)
in vitro [5] = settings: human
in vitro [6] = settings: human; remark: listed apart in the source
[7] = test system: hCMEC/D3 mono-culture BBB model; experiment: In vitro BBB permeability study (Papp), hCMEC/D3 mono-culture BBB model
[8] = test system: triple co-culture BBB model (hCMEC/D3, U251 and SH-SY5Y cells); experiment: In vitro BBB permeability study (Papp), triple co-culture BBB model
VE-cadherin = experiment: Western blot of VE-cadherin expression in hCMEC/D3 cells; type: cell-based, Homo sapiens
Procedure: (§1) Whole-cell and tissue lysates, nucleoprotein, and cytoplasmic protein were prepared using RIPA Lysis Buffer (Beyotime, Shanghai, China) as the described method ([Wu et al., 2021]). Proteins were separated through sodium dodecyl sulfate–polyacrylamide gel electrophoresis and transferred onto nitrocellulose or polyvinylidene difluoride membranes. The membranes were blocked with 5% skim milk and incubated with corresponding primary antibodies at 4°C overnight. After being washed with Tris-buffered saline Tween buffer, the membranes were incubated with secondary antibodies (Cell Signaling Technology, MA, USA) at 1:3000 dilution: Anti-mouse IgG, HRP-linked Antibody (#7076), Anti-rabbit IgG, HRP-linked Antibody (#7074). Protein levels were visualized using a highly sensitive ECL western blotting substrate and a gel imaging system (Tanon Science & Technology, Shanghai, China).
(§2) CM of U251 cells (U-CM), SH-SY5Y cells (S-CM), or co-culture of U251 and SH-SY5Y cells (US-CM) was prepared. U251 cells were seeded at the top of the insert membrane and suspended on 6-well plates seeded with differentiated SH-SY5Y cells to co-culture U251 cells with SH-SY5Y cells. The medium was collected every 24 hr. The CMs were subsequently used for hCMEC/D3 cell culture after filtrating with 0.2 μm filters for 144 hr. The levels of GDNF, bFGF, IGF-1, and TGF-β in CMs were measured using corresponding ELISA kits according to the manufacturers’ instructions.
(§3) Exogenous and endogenous GDNF in the medium was neutralized with anti-GDNF antibody (#AF-212-NA, R&D system, Minneapolis, MN, USA). 0.25, 0.5, and 1.0 μg/ml anti-GDNF antibody was added into the US-CM or medium containing 200 pg/ml GDNF, and then the medium was preincubated at 4°C for 1 hr. The hCMEC/D3 cells were incubated with 200 pg/ml GDNF or US-CM containing anti-GDNF antibody or not for 6 days, and then cell lysate was collected for western blot. The medium was replaced every 24 hr.
(§4) Here, hCMEC/D3 cells were plated in the plates or culture dishes at 6 × 10^4 cells/cm^2 and transfected with 10 nM of negative control or human FOXO1, ETS1, and CDH5 siRNA (Tsingke Biotechnology, Beijing, China) for 12 hr using Lipofectamine 3000 (Invitrogen, Carlsbad, CA, USA) reagent according to the manufacturer’s instructions. Cells were then incubated with a medium containing GDNF for 72 hr.

hCMEC/D3 cells = experiment: EdU incorporation assay; type: cell-based, Homo sapiens; settings: for EdU incorporation, EdU + fraction / EdU incorporation, EdU − fraction: 6 days
Procedure: The cells were incubated with medium containing 10 μM Edu for 2 hr. […] The EdU incorporation assay was measured using the BeyoClick EdU Cell Proliferation Kit (Beyotime Biotechnology, Shanghai, China) according to the manufacturer’s instructions. The samples were determined on the FACSCelesta flow cytometer (Becton, Dickins on and Company, USA), and data were analyzed by Flowjo 10.4 software.

claudin-5 = experiment: Western blot of claudin-5 expression in hCMEC/D3 cells; type: cell-based, Homo sapiens
Procedure: as §1, §2, §3, §4
The plasmids encoding FOXO1 (EX-Z7404-M02) were constructed by GeneCopoeia (Rockville, MD, USA). The hCMEC/D3 cells were plated in plates or dishes at 6 × 10^4 cells/cm^2. They were subsequently transfected with 1 µg of negative control or plasmids encoding FOXO1 6 hr using Lipofectamine 3000 reagent according to the manufacturer’s instructions. Transfected cells were then incubated with the medium containing GDNF for 72 hr.

[9] = test system: triple co-culture BBB model (hCMEC/D3, U251 and SH-SY5Y cells); experiment: TEER of triple co-culture BBB model; type: cell-based, Homo sapiens; settings: for TEER: Triple+PP2, single replicates, Figure 2S
Procedure: The establishment process of the triple co-culture model is illustrated in Figure 9. SH-SY5Y cells were seeded at a density of 4.5 × 10^4 cells/cm^2 in plates and differentiated with 10 μM retinoic acid (Sigma-Aldrich, St. Louis, MO, USA) for 72 hr. The differentiated SH-SY5Y cells were cultured in the fresh DMEM/F12 medium containing 10% FBS. U251 cells were seeded at 2 × 10^4 cells/cm^2 on the bottom of Transwell inserts (PET, 0.4 µm pore size, SPL Life Sciences, Pocheon, Korea) coated with rat-tail collagen (Corning Inc, Corning, NY, USA). Next, the inserts were suspended in plate wells containing the culture medium after 5 hr of incubation. After 24 hr of incubation, hCMEC/D3 cells were seeded on the apical side of the inserts at 3 × 10^4 cells/cm^2 and cultured for another 48 hr. Then, the inserts seeded with U251 and hCMEC/D3 cells were suspended in plates seeded with differentiated SH-SY5Y cells and co-cultured for another 6 days. The culture medium was replaced every 24 hr. TEER was periodically measured using a Millicell-ERS (MERS00002) instrument (Millipore, Billerica MA, USA) to monitor cell confluence and development of TJs.

[10] = test system: hCMEC/D3 mono-culture BBB model; experiment: TEER of hCMEC/D3 mono-culture BBB model; type: cell-based, Homo sapiens; settings: hCMEC/D3 mono-culture, 200 pg/ml GDNF, day 6; 3 μM SPP-86 or 5 μM PP2
[11] = hCMEC/D3 cells incubated with conditioned medium or neurotrophic factor vs normal medium
[12] = hCMEC/D3 cells, 200 pg/ml GDNF, 3 μM SPP-86, 5 μM PP2, 3 μM LY294002, 2 μM U0126, 5 μM SP600125, 2 μM SB203580, anti-GDNF antibody 0.25, 0.5, 1.0 μg/ml
[13] = hCMEC/D3 cells, US-CM, 3 μM SPP-86, 5 μM PP2, 3 μM LY294002, 2 μM U0126, anti-GDNF antibody 0.25, 0.5, 1.0 μg/ml

Row | PSPre, Mono ([3]; human) | PS ([3]; human, 30 min) | PS ([4]; human, 30 min) | Papp A→B at 30 min (in vitro [5]; Papp, Triple) | Papp A→B at 30 min (in vitro [6]; Papp Mean) | Papp A→B at 30 min (in vitro [6]; Papp, Mono) | Compound | fu, brain ([1]; ref Summerfield et al., 2007) | PSObs ([2]; ref Summerfield et al., 2007) | further results
1 | 2637.00 µL/min/g | 2637.00 µL/min/g | 2009.25 µL/min/g | 17.9 ± 0.21 ×10⁻⁶ cm/s | – | 23.4 ± 0.44 ×10⁻⁶ cm/s | CN1CCN2c3ncccc3Cc3ccccc3C2C1 (centres unmarked) [Mirtazapine] | 0.08^† | 1912.50^† μl/min/g | –
2 | 25,052.57 μl/min/g | 25052.57 µL/min/g | 8272.72 µL/min/g | 12.9 ± 2.06 ×10⁻⁶ cm/s | – | 39 ± 0.54 ×10⁻⁶ cm/s | CN1CCN(C2=Nc3cc(Cl)ccc3Nc3ccccc32)CC1 [Clozapine] | – | – | fu, brain ([1]; ref Bhyrapuneni et al., 2018): 0.0056; fu, brain ([1]; ref Cremers et al., 2012): 0.014^**; Papp A→B at 30 min (in vitro [6]; Papp (individual replicate)): 38.9 ×10⁻⁶ cm/s
3 | 310.22 µL/min/g | 310.22 µL/min/g | 165.23 µL/min/g | 3.64 ± 0.26 ×10⁻⁶ cm/s | – | 6.84 ± 0.95 ×10⁻⁶ cm/s | NC12CC3CC(CC(C3)C1)C2 [Amantadine] | – | 116.10^† μl/min/g | fu, brain ([1]; ref Esaki et al., 2019): 0.1985^*; Papp A→B at 30 min (in vitro [5]; Papp (individual replicate)): 3.04 ×10⁻⁶ cm/s
4 | 2666.89 µL/min/g | 2666.89 µL/min/g | 908.69 µL/min/g | 11.7 ± 0.15 ×10⁻⁶ cm/s | – | 34.4 ± 1.26 ×10⁻⁶ cm/s | NC(=O)N1c2ccccc2C=Cc2ccccc21 [Carbamazepine] | – | 959.40^† μl/min/g | fu, brain ([1]; ref Maurer et al., 2005): 0.116^¶
5 | – | – | – | – | – | – | CC(NC(C)(C)C)C(=O)c1cccc(Cl)c1 (centres unmarked) [Buproprion] | – | – | PS [3]: 1139.58 µL/min/g; PS [4]: 850.58 µL/min/g; Papp A→B ([7]; read-out: Papp Mean, Mono-culture BBB Model, mean of 4 replicates): 15.2 ×10⁻⁶ cm/s; Papp A→B ([8]; read-out: Papp Mean, Triple co-culture BBB model, mean of 4 replicates): 11.3 ×10⁻⁶ cm/s
6 | 6076.80 µL/min/g | 6076.80 µL/min/g | 3837.60 µL/min/g | – | 16.9 ×10⁻⁶ cm/s | 16.9 ± 1.08 ×10⁻⁶ cm/s | CN(C)CCC=C1c2ccccc2COc2ccccc21 [Doxepin] | 0.025^† | 2192.40^† μl/min/g | –
7 | – | – | – | – | – | – | bFGF: basic fibroblast growth factor, recombinant protein | – | – | VE-cadherin expression (VE-cadherin; [11]): without affecting; EdU incorporation, EdU + fraction (hCMEC/D3 cells; bFGF 6 ng/mL): 21.1; EdU incorporation, EdU − fraction (hCMEC/D3 cells; bFGF 6 ng/mL): 78.9; EdU incorporation, EdU + fraction (hCMEC/D3 cells; bFGF 20 ng/mL): 28.3; EdU incorporation, EdU − fraction (hCMEC/D3 cells; bFGF 20 ng/mL): 71.7; EdU incorporation, EdU + fraction (hCMEC/D3 cells; bFGF 60 ng/mL): 31.0; EdU incorporation, EdU − fraction (hCMEC/D3 cells; bFGF 60 ng/mL): 69.0; cell proliferation (hCMEC/D3 cells; bFGF (6, 20, and 60 ng/ml) for 6 days, EdU incorporation and cell viability): increased cell proliferation; claudin-5 expression (claudin-5; [11]): without affecting
8 | – | – | – | – | – | – | CC(C)(C)n1nc(-c2ccc(Cl)cc2)c2c(N)ncnc21 [PP2] | – | – | TEER ([9]; Day3): 61.05 Ω·cm2 and 61.38 Ω·cm2 and 59.07 Ω·cm2 and 63.36 Ω·cm2; TEER ([9]; Day4): 66.66 Ω·cm2 and 65.01 Ω·cm2 and 64.68 Ω·cm2 and 62.04 Ω·cm2; TEER ([9]; Day5): 81.51 Ω·cm2 and 78.21 Ω·cm2 and 77.88 Ω·cm2 and 76.89 Ω·cm2; TEER ([9]; Day6): 78.21 Ω·cm2 and 80.19 Ω·cm2 and 76.23 Ω·cm2 and 79.2 Ω·cm2; increased TEER values in the triple co-culture BBB model, effect of inhibitor ([9]; day 6, 3 μM SPP-86 or 5 μM PP2): completely reversed; GDNF-induced VE-cadherin expression (VE-cadherin; [12]): markedly attenuated; US-CM-induced VE-cadherin expression (VE-cadherin; [13]): markedly attenuated; GDNF-increased TEER values, effect of inhibitor [10]: almost abolished; GDNF-decreased permeability of fluorescein and FITC-Dex, effect of inhibitor ([7]; hCMEC/D3 mono-culture, 200 pg/ml GDNF, 3 μM SPP-86 or 5 μM PP2): almost abolished; GDNF-induced claudin-5 expression (claudin-5; [12]): markedly attenuated; US-CM-induced claudin-5 expression (claudin-5; [13]): markedly attenuated; decreased permeability of fluorescein and FITC-Dex in the triple co-culture BBB model, effect of inhibitor ([8]; 3 μM SPP-86 or 5 μM PP2): completely reversed
9 | 348.66 µL/min/g | 348.66 µL/min/g | 163.41 µL/min/g | – | 14.1 ×10⁻⁶ cm/s | 14.1 ± 1.44 ×10⁻⁶ cm/s | CCN(CC)CCNC(=O)c1cc(Cl)c(N)cc1OC [Metoclopramide] | 0.365^† | 125.10^† μl/min/g | –

Row | Compound | PSPre, Mono ([3]; human) | PS ([3]; human, 30 min) | PS ([4]; human, 30 min) | Papp A→B at 30 min (in vitro [5]; Papp, Triple) | Papp A→B at 30 min (in vitro [6]; Papp Mean) | Papp A→B at 30 min (in vitro [6]; Papp, Mono) | fu, brain ([1]; ref Summerfield et al., 2007) | PSObs ([2]; ref Summerfield et al., 2007) | further results
10 | CN(C)CCC=C1c2ccccc2CCc2ccccc21 [Amitriptyline] | 13,716.00 μl/min/g | 13716.00 µL/min/g | 13149.00 µL/min/g | 14.6 ± 0.27 ×10⁻⁶ cm/s | 15.2 ×10⁻⁶ cm/s | 15.2 ± 0.64 ×10⁻⁶ cm/s | – | – | fu, brain ([1]; ref Fridén et al., 2011): 0.01^‡; fu, brain ([1]; ref Sánchez-Dengra et al., 2021): 0.002; fu, brain ([1]; ref Weber et al., 2013): 0.0071; PSObs ([2]; ref Avdeef and Sun, 2011): 4608.00^*** μl/min/g; PSPre, Triple ([4]; human): 13,149.00 μl/min/g; Papp A→B at 30 min (in vitro [5]; Papp (individual replicate)): 14 ×10⁻⁶ cm/s; Papp A→B at 30 min (in vitro [5]; Papp Mean): 14.6 ×10⁻⁶ cm/s; Papp A→B at 30 min (in vitro [6]; Papp (individual replicate)): 16.6 ×10⁻⁶ cm/s
